Reference: patent publication US12006328B2, “Thieno[2,3-d]pyrimidin-4-one derivatives as NMDAR modulators and uses related thereto” (Emory University, priority 2014, dated 2024)

How the values were obtained:
Type in all cases: cell-based
[1] = molecular target: GluN2D-containing NMDA receptors (Homo sapiens, UniProt O15399); experiment: Two-electrode voltage-clamp recordings from Xenopus laevis oocytes, GluN2D; details: for I10 μM/ICONTROL (mean ± SEM, %) Glu N2D: 10 μM test compound with glutamate 100 μM and glycine 30 μM, Tables 1-5; for I10 μM/ICONTROL (mean ± SEM, %) Glu N2D / maximal potentiation Glu N2D: percent of response without compound; for EC50 / maximal potentiation Glu N2D: Table 1; for EC50: glutamate 100 μM, glycine 30 μM, Hill fit, read-out: EC50 Glu N2D; for maximal potentiation Glu N2D: in brackets after EC50
Chain of GluN2D-containing NMDA receptors (O15399 28-1336, other chains not shown): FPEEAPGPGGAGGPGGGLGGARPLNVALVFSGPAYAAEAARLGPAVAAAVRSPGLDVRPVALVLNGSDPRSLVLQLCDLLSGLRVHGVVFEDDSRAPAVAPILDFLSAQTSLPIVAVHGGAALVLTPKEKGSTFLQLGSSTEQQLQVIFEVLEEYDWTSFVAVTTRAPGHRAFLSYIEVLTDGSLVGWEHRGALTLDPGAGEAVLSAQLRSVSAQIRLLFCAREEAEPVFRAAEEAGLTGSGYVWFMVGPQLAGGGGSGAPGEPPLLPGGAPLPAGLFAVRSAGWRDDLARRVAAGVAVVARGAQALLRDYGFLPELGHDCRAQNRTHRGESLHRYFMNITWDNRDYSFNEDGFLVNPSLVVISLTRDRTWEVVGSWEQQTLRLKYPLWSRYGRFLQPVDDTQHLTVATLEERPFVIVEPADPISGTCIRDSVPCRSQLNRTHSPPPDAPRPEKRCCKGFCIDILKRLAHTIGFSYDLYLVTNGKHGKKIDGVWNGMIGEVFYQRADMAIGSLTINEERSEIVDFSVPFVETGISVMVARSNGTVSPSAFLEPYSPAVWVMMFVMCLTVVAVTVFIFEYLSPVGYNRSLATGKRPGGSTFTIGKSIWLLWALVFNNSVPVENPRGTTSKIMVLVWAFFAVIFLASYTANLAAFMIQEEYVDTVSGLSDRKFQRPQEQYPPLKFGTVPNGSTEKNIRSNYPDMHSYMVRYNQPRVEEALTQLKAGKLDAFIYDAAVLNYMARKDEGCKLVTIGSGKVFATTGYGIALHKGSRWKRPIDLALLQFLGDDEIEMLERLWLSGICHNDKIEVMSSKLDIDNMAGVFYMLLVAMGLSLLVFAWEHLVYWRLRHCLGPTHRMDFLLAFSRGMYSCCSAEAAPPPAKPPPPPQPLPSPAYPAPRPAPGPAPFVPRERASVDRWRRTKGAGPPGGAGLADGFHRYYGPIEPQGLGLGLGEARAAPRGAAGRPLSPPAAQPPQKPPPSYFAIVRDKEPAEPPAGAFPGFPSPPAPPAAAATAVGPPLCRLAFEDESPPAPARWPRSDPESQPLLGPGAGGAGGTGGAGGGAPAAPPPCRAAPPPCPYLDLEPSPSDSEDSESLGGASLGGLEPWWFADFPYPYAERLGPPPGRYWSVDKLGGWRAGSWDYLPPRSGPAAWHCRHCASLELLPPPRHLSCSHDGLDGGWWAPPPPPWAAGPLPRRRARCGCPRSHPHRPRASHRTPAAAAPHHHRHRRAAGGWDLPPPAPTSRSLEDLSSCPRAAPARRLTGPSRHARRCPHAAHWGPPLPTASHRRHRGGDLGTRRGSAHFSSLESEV
Protocol: (§1) Xenopus laevis oocytes were injected with cRNA encoding the NMDA receptor subunits. Two to seven days after injection, two-electrode voltage-clamp recordings were performed. Extracellular solutions were made from a solutions containing (in mM) 90 NaCl, 3 KCl, 10 HEPES, 0.5 BaCl2, 0.01 EDTA (pH 7.4 with NaOH). Voltage and current electrodes were filled with 0.3 M and 3.0 M KCl, respectively.
(§2) Potency was determined by adding increasing concentrations of test compound to saturating concentrations of glutamate (100 μM) and glycine (30 μM), and the response amplitude measured. The response in the presence of each concentration of test compound plus agonists was expressed as a percent of the response in the absence of test compound.

[2] = molecular target: GluN2B-containing NMDA receptors (Homo sapiens, UniProt Q13224); experiment: Two-electrode voltage-clamp recordings from Xenopus laevis oocytes, GluN2B; details: for I10 μM/ICONTROL (mean ± SEM, %) Glu N2B: 10 μM test compound with glutamate 100 μM and glycine 30 μM, Tables 1-5; for I10 μM/ICONTROL (mean ± SEM, %) Glu N2B / maximal potentiation Glu N2B: percent of response without compound; for EC50 / maximal potentiation Glu N2B: Table 1; for EC50: glutamate 100 μM, glycine 30 μM, Hill fit, read-out: EC50 Glu N2B; for maximal potentiation Glu N2B: in brackets after EC50
Chain of GluN2B-containing NMDA receptors (Q13224 27-1484, other chains not shown): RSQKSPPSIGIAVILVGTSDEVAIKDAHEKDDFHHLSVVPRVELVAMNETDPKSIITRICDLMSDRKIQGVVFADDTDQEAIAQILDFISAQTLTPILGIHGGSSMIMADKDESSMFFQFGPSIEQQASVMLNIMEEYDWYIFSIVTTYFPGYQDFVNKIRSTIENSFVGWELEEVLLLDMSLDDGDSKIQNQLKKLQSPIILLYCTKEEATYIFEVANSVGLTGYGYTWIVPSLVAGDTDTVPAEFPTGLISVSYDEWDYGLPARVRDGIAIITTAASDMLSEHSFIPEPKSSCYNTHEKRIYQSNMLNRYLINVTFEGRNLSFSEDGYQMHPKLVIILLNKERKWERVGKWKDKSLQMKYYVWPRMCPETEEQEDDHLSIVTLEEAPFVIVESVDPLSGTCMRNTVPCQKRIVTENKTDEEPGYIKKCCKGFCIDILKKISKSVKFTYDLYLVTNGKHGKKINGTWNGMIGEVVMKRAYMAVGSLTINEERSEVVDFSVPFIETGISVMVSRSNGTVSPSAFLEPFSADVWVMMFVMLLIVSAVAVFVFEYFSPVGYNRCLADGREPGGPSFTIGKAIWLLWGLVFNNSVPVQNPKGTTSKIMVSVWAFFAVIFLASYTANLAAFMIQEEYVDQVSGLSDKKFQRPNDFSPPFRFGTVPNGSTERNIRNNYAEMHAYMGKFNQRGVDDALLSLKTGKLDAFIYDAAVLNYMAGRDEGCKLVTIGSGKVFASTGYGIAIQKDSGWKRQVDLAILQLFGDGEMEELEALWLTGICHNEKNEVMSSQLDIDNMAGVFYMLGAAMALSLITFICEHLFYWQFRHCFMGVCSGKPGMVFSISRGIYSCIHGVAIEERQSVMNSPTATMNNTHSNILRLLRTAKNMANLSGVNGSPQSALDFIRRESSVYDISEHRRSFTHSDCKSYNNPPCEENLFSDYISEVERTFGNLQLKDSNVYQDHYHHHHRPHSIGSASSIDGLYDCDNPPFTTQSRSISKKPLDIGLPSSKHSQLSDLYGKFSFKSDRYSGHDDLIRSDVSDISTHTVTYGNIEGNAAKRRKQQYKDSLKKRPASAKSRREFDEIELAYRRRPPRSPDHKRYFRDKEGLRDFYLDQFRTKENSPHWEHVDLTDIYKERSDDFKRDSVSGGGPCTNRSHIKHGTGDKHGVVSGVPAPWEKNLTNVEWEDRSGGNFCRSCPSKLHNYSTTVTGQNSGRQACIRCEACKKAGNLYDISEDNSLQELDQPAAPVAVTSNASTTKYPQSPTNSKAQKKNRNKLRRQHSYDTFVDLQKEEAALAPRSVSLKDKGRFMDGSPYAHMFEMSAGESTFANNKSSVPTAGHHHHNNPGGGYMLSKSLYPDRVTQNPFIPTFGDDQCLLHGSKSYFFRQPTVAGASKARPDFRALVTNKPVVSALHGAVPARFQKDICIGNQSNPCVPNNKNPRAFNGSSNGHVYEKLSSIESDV
Protocol: as §1, §2

[3] = molecular target: GluN2C-containing NMDA receptors (Homo sapiens, UniProt Q14957); experiment: Two-electrode voltage-clamp recordings from Xenopus laevis oocytes, GluN2C; details: for I10 μM/ICONTROL (mean ± SEM, %) Glu N2C: 10 μM test compound with glutamate 100 μM and glycine 30 μM, Tables 1-5; for I10 μM/ICONTROL (mean ± SEM, %) Glu N2C / maximal potentiation Glu N2C: percent of response without compound; for EC50 / maximal potentiation Glu N2C: Table 1; for EC50: glutamate 100 μM, glycine 30 μM, Hill fit, read-out: EC50 Glu N2C; for maximal potentiation Glu N2C: in brackets after EC50
Chain of GluN2C-containing NMDA receptors (Q14957 20-1233, other chains not shown): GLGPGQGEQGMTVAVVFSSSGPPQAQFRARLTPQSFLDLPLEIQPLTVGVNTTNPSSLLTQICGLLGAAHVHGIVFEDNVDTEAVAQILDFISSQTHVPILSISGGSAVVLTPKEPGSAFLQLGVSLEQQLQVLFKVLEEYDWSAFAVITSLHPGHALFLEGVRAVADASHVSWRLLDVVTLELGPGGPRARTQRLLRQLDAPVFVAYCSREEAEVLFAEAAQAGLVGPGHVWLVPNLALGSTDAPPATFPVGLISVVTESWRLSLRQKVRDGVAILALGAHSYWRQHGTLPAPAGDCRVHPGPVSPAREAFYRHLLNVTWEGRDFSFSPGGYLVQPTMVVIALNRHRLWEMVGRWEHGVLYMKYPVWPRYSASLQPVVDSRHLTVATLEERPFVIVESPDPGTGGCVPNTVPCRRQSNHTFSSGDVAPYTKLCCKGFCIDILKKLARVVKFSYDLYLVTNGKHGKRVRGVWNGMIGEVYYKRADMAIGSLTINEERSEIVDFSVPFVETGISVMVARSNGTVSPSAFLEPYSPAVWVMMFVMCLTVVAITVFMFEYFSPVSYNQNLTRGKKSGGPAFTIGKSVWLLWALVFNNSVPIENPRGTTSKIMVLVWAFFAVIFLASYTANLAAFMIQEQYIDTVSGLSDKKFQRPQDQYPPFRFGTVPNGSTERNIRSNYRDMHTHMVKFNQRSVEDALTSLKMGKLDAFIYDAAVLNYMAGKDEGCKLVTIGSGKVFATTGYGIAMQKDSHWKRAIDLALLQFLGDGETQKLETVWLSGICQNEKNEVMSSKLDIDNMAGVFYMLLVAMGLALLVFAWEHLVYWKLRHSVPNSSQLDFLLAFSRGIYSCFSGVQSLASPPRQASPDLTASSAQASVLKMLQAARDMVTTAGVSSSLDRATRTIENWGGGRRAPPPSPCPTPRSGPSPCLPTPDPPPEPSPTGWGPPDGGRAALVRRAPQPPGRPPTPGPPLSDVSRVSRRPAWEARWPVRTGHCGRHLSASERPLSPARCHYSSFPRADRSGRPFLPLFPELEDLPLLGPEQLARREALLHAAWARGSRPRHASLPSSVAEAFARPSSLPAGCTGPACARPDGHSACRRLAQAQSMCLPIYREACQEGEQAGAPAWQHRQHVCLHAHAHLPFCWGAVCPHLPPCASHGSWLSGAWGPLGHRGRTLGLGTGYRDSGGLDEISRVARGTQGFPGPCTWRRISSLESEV
Protocol: as §1, §2

I10 μM/ICONTROL (mean ± SEM, %) Glu N2D [1] [%]	EC50 [1] [µM]	maximal potentiation Glu N2D [1] [%]	I10 μM/ICONTROL (mean ± SEM, %) Glu N2B [2] [%]	EC50 [2] [µM]	maximal potentiation Glu N2B [2] [%]	I10 μM/ICONTROL (mean ± SEM, %) Glu N2C [3] [%]	EC50 [3] [µM]	maximal potentiation Glu N2C [3] [%]	SMILES
239 ± 11.5	21	687	172 ± 8.7	11	266	241 ± 19.7	17	568	Cc1sc2ncn(CC(=O)N3CCCC3)c(=O)c2c1-c1cccc(Br)c1 [3-Br—Ph / Me]
480 ± 74.3	25	1735	211 ± 11.3	6	282	368 ± 29.0	13	748	Cc1sc2ncn(CC(=O)N3CCCC3)c(=O)c2c1-c1cccc(C(F)(F)F)c1 [3-CF3—Ph / Me]
177 ± 6.2	–	–	147 ± 4.1	–	–	190 ± 4.2	–	–	Cc1sc2ncn(CC(=O)N3CCCC3)c(=O)c2c1-c1cccc(C#N)c1 [3-CN—Ph / Me]
190 ± 6.3	37	830	170 ± 4.7	16	301	211 ± 14.7	36	877	Cc1sc2ncn(CC(=O)N3CCCC3)c(=O)c2c1-c1cccc(Cl)c1 [3-Cl—Ph / Me]
364 ± 31.6	15	1068	246 ± 14.9	3.7	249	401 ± 36.4	7.6	622	Cc1sc2ncn(CC(=O)N3CCCC3)c(=O)c2c1-c1cccc(I)c1 [3-I—Ph / Me]
175 ± 9.4	10	592	176 ± 8.1	23.8	295	264 ± 17.7	10	613	Cc1sc2ncn(CC(=O)N3CCCC3)c(=O)c2c1-c1cccc(N=[N+]=[N-])c1 [3-N3—Ph / Me]
99 ± 3.4	80	207	120 ± 5.8	102	261	112 ± 1.3	191	453	Cc1sc2ncn(CC(=O)N3CCCC3)c(=O)c2c1-c1cccc(-n2ccnc2)c1 [3-N-imidazolyl-Ph / Me]
253 ± 13.3	60	1860	185 ± 4.8	12	304	321 ± 13.6	36	1483	Cc1sc2ncn(CC(=O)N3CCCC3)c(=O)c2c1-c1cccc([N+](=O)[O-])c1 [3-NO2—Ph / Me]
131 ± 3.7	25	291	118 ± 5.2	11	147	135 ± 5.4	35	392	Cc1sc2ncn(CC(=O)N3CCCC3)c(=O)c2c1-c1ccc(OCc2ccccc2)cc1 [4-BnO—Ph / Me]
–	79	400	–	11.3	163	–	60	449	Cc1sc2ncn(CC(=O)N3CCCC3)c(=O)c2c1-c1ccc(Br)cc1 [4-Br—Ph / Me]
–	72	512	–	46	314	–	76	770	O=C(Cn1cnc2scc(-c3ccc(Cl)cc3)c2c1=O)N1CCCC1 [4-Cl—Ph / H]
–	23	381	–	11	223	–	15	347	Cc1sc2ncn(CC(=O)N3CCCC3)c(=O)c2c1-c1ccc(Cl)cc1 [4-Cl—Ph / Me]
–	58	355	–	39	223	–	66	417	CCc1ccc(-c2csc3ncn(CC(=O)N4CCCC4)c(=O)c23)cc1 [4-Et—Ph / H]
–	124	428	–	54	213	–	81	448	Cc1sc2ncn(CC(=O)N3CCCC3)c(=O)c2c1-c1ccc(F)cc1 [4-F—Ph / Me]
101 ± 1.8	45	206	121 ± 5.7	75	262	110 ± 2.1	89	369	O=C(Cn1cnc2scc(-c3ccc(I)cc3)c2c1=O)N1CCCC1 [4-I—Ph / H]
96 ± 2.6	–	–	102 ± 4.6	–	–	99 ± 2.5	–	–	CSc1ccc(-c2csc3ncn(CC(=O)N4CCCC4)c(=O)c23)cc1 [4-MeS—Ph / H]
–	170	560	–	109	226	–	207	597	Cc1ccc(-c2csc3ncn(CC(=O)N4CCCC4)c(=O)c23)cc1 [4-Me—Ph / H]
147 ± 6.3	134	730	134 ± 6.7	88	353	166 ± 7.2	102	918	[N-]=[N+]=Nc1ccc(-c2csc3ncn(CC(=O)N4CCCC4)c(=O)c23)cc1 [4-N3—Ph / H]
128 ± 2.6	50	426	135 ± 5.5	54	304	146 ± 6.4	54	485	Cc1sc2ncn(CC(=O)N3CCCC3)c(=O)c2c1-c1ccc(N=[N+]=[N-])cc1 [4-N3—Ph / Me]
103 ± 2.2	–	–	104 ± 1.7	–	–	116 ± 4.5	–	–	Cc1sc2ncn(CC(=O)N3CCCC3)c(=O)c2c1-c1ccc(N)cc1 [4-NH2—Ph / Me]
–	18	232	–	15	147	–	18	186	CCOc1ccc(-c2c(C)sc3ncn(CC(=O)N4CCCC4)c(=O)c23)cc1 [4-OEt—Ph / Me]
99 ± 2.5	–	–	82 ± 1.0	–	–	98 ± 2.3	–	–	Cc1sc2ncn(CC(=O)N3CCCC3)c(=O)c2c1-c1ccc(O)cc1 [4-OH—Ph / Me]
98 ± 1.4	–	–	121 ± 6.9	33	174	100 ± 2.5	–	–	CC(C)c1ccc(-c2csc3ncn(CC(=O)N4CCCC4)c(=O)c23)cc1 [4-^iPr—Ph / H]
148 ± 9.1	12	262	115 ± 5.4	15	153	120 ± 3.7	14	168	Cc1sc2ncn(CC(=O)N3CCCC3)c(=O)c2c1-c1ccccc1 [Ph / Me]
98 ± 4.3	–	–	116 ± 4.0	–	–	98 ± 7.9	–	–	C#CCn1cnc2sc(C)c(-c3cccc(Cl)c3)c2c1=O [—C≡CH]

SMILES	I10 μM/ICONTROL (mean ± SEM, %) Glu N2D [1] [%]	EC50 [1] [µM]	maximal potentiation Glu N2D [1] [%]	I10 μM/ICONTROL (mean ± SEM, %) Glu N2B [2] [%]	EC50 [2] [µM]	maximal potentiation Glu N2B [2] [%]	I10 μM/ICONTROL (mean ± SEM, %) Glu N2C [3] [%]	EC50 [3] [µM]	maximal potentiation Glu N2C [3] [%]
O=C(Cn1cnc2sc3c(c2c1=O)CCCC3)c1ccc([N+](=O)[O-])cc1 [Compound 4-NO2]	97 ± 1.1	–	–	94 ± 1.3	–	–	93 ± 2.0	–	–
